The results in this text go back to ChEMBL document CHEMBL1155747, “Cytotoxic diacetylenes from the stony coral Montipora species” (2001).

In brackets after ≈: the same amount, converted by molar mass. Where only a bound is given, the exact number is not on record here.

Holding throughout (type): functional
For test [1], the system named is SK-MEL-2. In words: Cytotoxicity against human SK-MEL-2 cells. The settings on record: read-out: ED50 (the source's name).
The test system of test [2] is XF498. In words: Cytotoxicity against human XF498 cells. The settings on record: read-out: ED50 (the source's name).
Test [3] has as its system HCT-15. In words: Cytotoxicity against human HCT15 cells. The settings on record: read-out: ED50 (the source's name).
Test [4] concerns A549. In words: Cytotoxicity against human A549 cells. The settings on record: read-out: ED50 (the source's name).
Test [5] deals with SK-OV-3. In words: Cytotoxicity against human SKOV3 cells. The settings on record: read-out: ED50 (the source's name).
Test [6] relates to HCT-116. Put plainly: Inhibition of cell cycle in human HCT116 cells assessed as increase in apoptotic fraction at 100 ug/mL after 24 hrs by flow cytometry. Also noted: scale not given: the % may be the effect or the level left.

Consider `C=CCCCCCCCC#CC#CCOCC(=O)[O-].[Na+]`, for which the EC50 turned out to be 4.68 µg/mL in test [1]; 4.96 µg/mL in test [2]; 4.47 µg/mL in test [3]; 6.26 µg/mL in test [4]; 4.88 µg/mL in test [5].
For `CCCCCCCC#CC#CCO`, the EC50 in test [1] came out at 4.45 µg/mL (≈ 25 µM); in test [2] it was 5.59 µg/mL (≈ 31.4 µM); in test [3], 5.9 µg/mL (≈ 33.1 µM); in test [4], 5.48 µg/mL (≈ 30.7 µM); in test [5], 4.63 µg/mL (≈ 26 µM).
In the case of `C=CCCCCCC#CC#C/C=C\C(C)=O`, the EC50 in test [1] was 4.61 µg/mL (≈ 21.5 µM); in test [2], 29.2 µg/mL (≈ 136 µM); in test [3], 11.3 µg/mL (≈ 52.7 µM); in test [4], > 30 µg/mL; in test [5] it was 5.23 µg/mL (≈ 24.4 µM).
As to `C=CCCCCCCCC#CC#CCO`, the EC50 in test [1] was 3.94 µg/mL (≈ 19.3 µM); in test [2], 5.26 µg/mL (≈ 25.7 µM); in test [3], 3.32 µg/mL (≈ 16.2 µM); in test [4], 3.9 µg/mL (≈ 19.1 µM); in test [5] it was 3.23 µg/mL (≈ 15.8 µM).
In the same order, the values of `C=CCCCCCC#CC#C/C=C/C(C)=O` are 4.21 µg/mL (≈ 19.6 µM), 5.5 µg/mL (≈ 25.7 µM), 4.56 µg/mL (≈ 21.3 µM), 6.39 µg/mL (≈ 29.8 µM) and 3.52 µg/mL (≈ 16.4 µM).
On to `C=CCCCCCC#CC#CC(O)CC(C)=O` (racemic), for which the EC50 in test [1] was determined as 3.74 µg/mL (≈ 16.1 µM); in test [2], 3.87 µg/mL (≈ 16.7 µM); in test [3], 3.42 µg/mL (≈ 14.7 µM); in test [4], 4.97 µg/mL (≈ 21.4 µM); in test [5] it was 3.85 µg/mL (≈ 16.6 µM).
For the molecule `CCCCCCCC#CC#CC(O)CC(C)=O` (racemic) [MONTIPORYNE I], the EC50 in test [1] is 1.4 µg/mL (≈ 5.97 µM); in test [2] it was 3.7 µg/mL (≈ 15.8 µM); in test [3] it was 3.73 µg/mL (≈ 15.9 µM); in test [4] it was 4.17 µg/mL (≈ 17.8 µM); in test [5], 1.81 µg/mL (≈ 7.72 µM).
The matching figures for `C=CCCCCCCCC#CC#CC(O)CC(C)=O` (racemic) [MONTIPORYNE K]: 3.52 µg/mL (≈ 13.5 µM), 4.45 µg/mL (≈ 17.1 µM), 4.18 µg/mL (≈ 16.1 µM), 4.91 µg/mL (≈ 18.9 µM) and 3.34 µg/mL (≈ 12.8 µM).
`COc1cccc2c1C(=O)c1c(O)c3c(c(O)c1C2=O)C[C@@](O)(C(=O)CO)C[C@@H]3O[C@H]1C[C@H](N)[C@H](O)[C@H](C)O1` [DOXORUBICIN]: the EC50 in test [1] was determined as 0.03 µg/mL (≈ 0.0552 µM); in test [2] it was 0.08 µg/mL (≈ 0.147 µM); in test [3], 0.04 µg/mL (≈ 0.0736 µM); in test [4], 0.02 µg/mL (≈ 0.0368 µM); in test [5], 0.13 µg/mL (≈ 0.239 µM).
For the molecule `CCCCCCCC#CC#CCOCC(=O)OC` [METHYLMONTIPORATE A], the EC50 in test [1] was > 30 µg/mL; in test [2] it was > 30 µg/mL; in test [3], 25.6 µg/mL (≈ 102 µM); in test [4], > 30 µg/mL; in test [5], 20.5 µg/mL (≈ 82 µM).
`C=CCCCCCCCC#CC#CCOCC(=O)OC` [METHYLMONTIPORATE B]: the EC50 in test [1], in test [2], in test [3], in test [4] and in test [5] was > 30 µg/mL in each case.
In the case of `CCCCCCCC#CC#CCOCC(=O)[O-].[Na+]` [MONTIPORIC ACID A SODIUM SALT], the EC50 in test [1] was 7.97 µg/mL; in test [2] it was 7.72 µg/mL; in test [3], 8.3 µg/mL; in test [4] it was 6.31 µg/mL; in test [5] it was 7.5 µg/mL.
In the same order, the values of `C=CCCCCCC#CC#CCOCC(=O)[O-].[Na+]` [MONTIPORIC AICD C] are > 30 µg/mL, > 30 µg/mL, > 30 µg/mL, > 30 µg/mL and > 30 µg/mL.
With `CCCCCCCC#CC#C/C=C/C(C)=O` [MONTIPORYNE A], the Activity in test [6] is recorded as 19%.
For the molecule `C=CCCCCCC#CC#CCO` [MONTIPORYNE G], the EC50 in test [1] worked out at 9.56 µg/mL (≈ 54.2 µM); in test [2], 10.8 µg/mL (≈ 61.2 µM); in test [3], 12.9 µg/mL (≈ 73.4 µM); in test [4] it was 13.8 µg/mL (≈ 78.2 µM); in test [5], 9.79 µg/mL (≈ 55.5 µM).
In the case of `C=CCCCCCC#CC#CCOCCO` [MONTIPORYNE H], the EC50 in test [1] is 25.1 µg/mL (≈ 114 µM); in test [2] it was 16.9 µg/mL (≈ 76.6 µM); in test [3], 24.1 µg/mL (≈ 109 µM); in test [4], 22.7 µg/mL (≈ 103 µM); in test [5], 17.9 µg/mL (≈ 81.4 µM).
